Measured values published in PMC9124820, “In vitro evaluation of fenfluramine and norfenfluramine as victims of drug interactions” (Pharmacology Research & Perspectives, 2022).

Legend:
Type in all cases: in vitro ADME
rCYP2C19 = target: T1, rCYP2C19 (Homo sapiens, UniProt P33261); test: Reaction phenotyping with rCYP2C19; conditions: rCYP2C19, 60 min
T1 construct: purchased Cypex, Ltd; host or cells: Escherichia coli
Description: For FFA and nFFA reaction phenotyping experiments, LC‐MS/MS experiments were performed using an API 4000 QTRAP or QTRAP 5500 mass spectrometer (SCIEX) with positive electrospray ionization. Chromatography was performed using an Atlantis dC18 analytical column (100 × 2.1 mm, 5 µm; Waters Corporation). Mobile phases were 0.2% v/v formic acid in water and 0.2% v/v formic acid in methanol. FFA and nFFA were eluted at a flow rate of 0.5 mL/min with a linear gradient of 40%−95% methanol from 0.20−2.1 min. The mass transitions monitored were 232.0>109.0 for FFA, 204.0>159.0 for nFFA, 348.0>330.0 for 1’‐hydroxymidazolam‐d4 internal standard (FFA reaction phenotyping), and 262.0>244.0 for hydroxybupropion‐d6 internal standard (nFFA reaction phenotyping). Analyst Instrument Control and Data Processing software (v. 1.6.1) was used for collecting and integrating data (SCIEX). Calibration curves ranging from 1.25 µM−0.01 µM were used to quantify nFFA. Relative quantitation was used to approximate the amount of FFA test material used.
Methods used to evaluate the role of CYP450s in the metabolism of FFA have been described.[22], [23], [24] […] Supernatant fractions were analyzed by LC‐MS/MS.

[1] = Metabolic stability and metabolite identity, dog liver S9 fractions; conditions: pH 7.4; 1 µM FFA, dog liver S9 fractions 2 mg protein/mL
Description: LC‐MS/MS analyses to assess metabolic stability and identify the transporter substrate were performed using an API 4000 QTRAP mass spectrometer (SCIEX, Framingham, MA) with electrospray ionization in positive mode. Chromatography was performed using an Atlantis dC18 analytical column (100 × 2.1 mm, 5 µm; Waters Corporation, Milford, MA). Mobile phases were 0.2% v/v formic acid in water and 0.2% v/v formic acid in acetonitrile. For metabolic stability experiments, FFA and metabolites were eluted at a flow rate of 0.6 mL/min, with a linear gradient of 20%−80% acetonitrile from 0.30−2.0 min. […] The mass transitions monitored were 232.0 > 159.0 for FFA and 348.0 > 330.0 for 1ʹ‐OH‐midazolam‐d4 internal standard. […]
FFA (1 or 10 µM) was incubated with liver and intestinal S9 fractions (2 mg protein/mL) at 37 ± 1°C in 0.2‐mL incubation mixtures containing potassium phosphate buffer (50 mM, pH 7.4), magnesium chloride (MgCl2) (3 mM), and EDTA (1 mM, pH 7.4), in the presence or absence of a three‐component cofactor mixture (NADPH‐generating system, uridine diphosphate glucuronic acid (UDPGA) [8 mM], and 3’‐phosphoadenosine 5’‐phosphosulfate [0.5 mM]). […] Supernatant fractions were analyzed by LC‐MS/MS.
To characterize substrate loss and metabolic stability, duplicate samples were analyzed by LC‐MS/MS to determine the change in substrate concentration over the incubation period. […]

[2] = Metabolic stability and metabolite identity, human liver S9 fractions
Description: LC‐MS/MS analyses to assess metabolic stability and identify the transporter substrate were performed using an API 4000 QTRAP mass spectrometer (SCIEX, Framingham, MA) with electrospray ionization in positive mode. Chromatography was performed using an Atlantis dC18 analytical column (100 × 2.1 mm, 5 µm; Waters Corporation, Milford, MA). Mobile phases were 0.2% v/v formic acid in water and 0.2% v/v formic acid in acetonitrile. For metabolic stability experiments, FFA and metabolites were eluted at a flow rate of 0.6 mL/min, with a linear gradient of 20%−80% acetonitrile from 0.30−2.0 min. For transporter substrate experiments, the gradient was slightly modified to achieve suitable chromatography. The mass transitions monitored were 232.0 > 159.0 for FFA and 348.0 > 330.0 for 1ʹ‐OH‐midazolam‐d4 internal standard.
For metabolic characterization experiments, LC‐MS/MS analyses were performed using an Acquity Ultra Performance Liquid Chromatography system with an in‐line photodiode array detector and ethylene bridged hybrid C18 columns (2.1 × 100 mm, 1.7 µm; Waters Corporation) coupled to a Synapt G2 HDMS QTOF (Waters Corporation). Mobile phases were 0.1% v/v formic acid in water and 0.1% v/v formic acid in methanol. FFA and metabolites were eluted at a flow rate of 0.5 mL/min with a linear gradient of 2.0%−35% methanol from 1.0−10.0 min. The mass spectrometer was operated in positive mode with electrospray ionization. Data were acquired over the range 50−1200 m/z (mass‐to‐charge ratio) using capillary voltage, 3.5 kV; extraction cone voltage, 4.0 V; source temperature, 120°C; and desolvation temperature, 350°C. A continuous lock mass reference compound, fexofenadine, was sampled at 10‐s intervals for centroid data mass correction. Data were processed with MetaboLynx XS, a component of MassLynx (v. 4.1) software (Waters Corporation).
FFA (1 or 10 µM) was incubated with liver and intestinal S9 fractions (2 mg protein/mL) at 37 ± 1°C in 0.2‐mL incubation mixtures containing potassium phosphate buffer (50 mM, pH 7.4), magnesium chloride (MgCl2) (3 mM), and EDTA (1 mM, pH 7.4), in the presence or absence of a three‐component cofactor mixture (NADPH‐generating system, uridine diphosphate glucuronic acid (UDPGA) [8 mM], and 3’‐phosphoadenosine 5’‐phosphosulfate [0.5 mM]). The NADPH‐generating system consisted of NADP (1 mM, pH 7.4), glucose‐6‐phosphate (5 mM, pH 7.4), and glucose‐6‐phosphate dehydrogenase (1 U/mL). Reactions were initiated by adding the cofactor mix and were stopped at 0, 30, 60, or 120 min by adding an equal volume of acetonitrile. Cofactor controls were incubations performed in parallel in the absence of cofactor for 120 min. Additional incubations were performed with midazolam (10 μM) as a positive control to establish the metabolic competence of test systems. Samples were centrifuged at 920 × g for 10 min at 10°C. Supernatant fractions were analyzed by LC‐MS/MS.
To characterize substrate loss and metabolic stability, duplicate samples were analyzed by LC‐MS/MS to determine the change in substrate concentration over the incubation period. The rate constant of elimination (kel, min^−1) was determined from the time course of substrate loss based on single exponential decay (A(t)=A0(‐kelt)) . Half‐life in vitro was determined by the following equation: t1/2 = 0.693/kel. The in vitro intrinsic clearance (CLint) was calculated from the rate constant of elimination as follows: CLintμL/min/mgprotein=kelmin^‐1×incubationvolume(μL)/mgproteinperincubation.
Percent loss of substrate was determined by normalizing the mean analyte peak‐area ratio at each time point to the average of four replicates at the 0‐min time point (100%).

[3] = pH 7.4, 1 µM FFA, human liver S9 fractions 2 mg protein/mL, outside assay detection limits

T1 sequence (P33261 whole entry): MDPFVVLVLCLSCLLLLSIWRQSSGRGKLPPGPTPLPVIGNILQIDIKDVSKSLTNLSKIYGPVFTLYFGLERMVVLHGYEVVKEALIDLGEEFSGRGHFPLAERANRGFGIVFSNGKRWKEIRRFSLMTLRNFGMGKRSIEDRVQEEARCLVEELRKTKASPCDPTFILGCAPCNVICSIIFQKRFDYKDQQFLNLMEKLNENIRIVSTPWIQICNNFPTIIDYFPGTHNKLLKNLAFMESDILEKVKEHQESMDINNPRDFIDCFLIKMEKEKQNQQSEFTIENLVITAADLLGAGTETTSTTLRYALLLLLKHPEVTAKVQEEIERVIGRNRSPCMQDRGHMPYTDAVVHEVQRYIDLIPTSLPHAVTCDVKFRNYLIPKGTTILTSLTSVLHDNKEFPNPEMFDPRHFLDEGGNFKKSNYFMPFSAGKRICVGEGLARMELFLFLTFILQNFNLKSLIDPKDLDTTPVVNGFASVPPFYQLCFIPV

Structure (SMILES): CCNC(C)Cc1cccc(C(F)(F)F)c1 (racemic) [FFA, (RS)‐ethyl (α‐methyl‐3‐trifluoromethylphenethyl)amine]
- Disappearance of FFA (rCYP2C19; 1 μM FFA): 49%
- FFA loss (rCYP2C19; 10 μM FFA): 50%
- half-life at 1 µM [1]: 30 min
- microsomal CLint at 1 µM [1]: 11.6 µL/min/mg
- percent of the drug remaining ([2]; human liver S9, 1 μM FFA with cofactors, 30 min): 1.9%
- percent of the drug remaining ([2]; human liver S9, 1 μM FFA with cofactors, 60 min): 11.1%
- percent of the drug remaining ([2]; human liver S9, 1 μM FFA with cofactors, 120 min): 20.9%
- percent of the drug remaining ([2]; human liver S9, 1 μM FFA, absence of the cofactors): 21.6%
- percent of the drug remaining ([2]; human liver S9, 10 μM FFA, absence of the cofactors): 22.9%
- half-life at 1 µM [2, 3]: > 120 min
- microsomal CLint at 1 µM [2, 3]: < 2.9 µL/min/mg
